Our source for the MIC values is US4399132A, “7-Beta-[alpha-syn-methoxyimino-alpha-(2-aminothiazol-4-yl)-aceta mido]-3-[(1,2,3-thiadiazol-5-ylthio)methyl]-3-cephem-4-carboxylic acid and C1 -C6 alkyl derivatives thereof” (American Cyanamid Company, priority 1981, dated 1983).

This test has as its system Staphylococcus aureus. Nature of the test: Mueller-Hinton agar dilution method (MIC). The format is cell-based. On the technique in general: In agar dilution the substance is mixed into plates at graded concentrations.
Setting [1] is: beta-lactamase negative, strain SSC 79-3, Table II, read-out: Minimal Inhibitory Concentration.
Setting [2] is: beta-lactamase negative, strain SSC 79-5, Table II, read-out: Minimal Inhibitory Concentration.
Where [3] appears, read: beta-lactamase negative, strain SSC 79-7, Table II, read-out: Minimal Inhibitory Concentration.
Setting [4] is: beta-lactamase negative, strain SSC 79-9, Table II, read-out: Minimal Inhibitory Concentration.
Setting [5] is: beta-lactamase negative, strain SSC 79-10, Table II, read-out: Minimal Inhibitory Concentration.
[6] abbreviates: beta-lactamase negative, strain SSC 79-11, Table II, read-out: Minimal Inhibitory Concentration.
Where [7] appears, read: beta-lactamase negative, strain SSC 79-14, Table II, read-out: Minimal Inhibitory Concentration.
Where [8] appears, read: beta-lactamase negative, strain SSC 79-15, Table II, read-out: Minimal Inhibitory Concentration.
[9] abbreviates: beta-lactamase negative, strain SSC 79-17, Table II, read-out: Minimal Inhibitory Concentration.
The mark [10] stands for this setting: beta-lactamase positive, strain SSC 79-24, Table II, read-out: Minimal Inhibitory Concentration.
Setting [11] is: beta-lactamase positive, strain SSC 79-27, Table II, read-out: Minimal Inhibitory Concentration.
The mark [12] stands for this setting: beta-lactamase positive, strain SSC 79-28, Table II, read-out: Minimal Inhibitory Concentration.
Setting [13] is: beta-lactamase positive, strain SSC 79-36, Table II, read-out: Minimal Inhibitory Concentration.
Where [14] appears, read: beta-lactamase positive, strain SSC 79-38, Table II, read-out: Minimal Inhibitory Concentration.
[15] abbreviates: beta-lactamase positive, strain SSC 79-39, Table II, read-out: Minimal Inhibitory Concentration.
[16] abbreviates: beta-lactamase positive, strain SSC 79-41, Table II, read-out: Minimal Inhibitory Concentration.
Where [17] appears, read: beta-lactamase positive, strain SSC 79-44, Table II, read-out: Minimal Inhibitory Concentration.
The mark [18] stands for this setting: beta-lactamase positive, strain SSC 79-47, Table II, read-out: Minimal Inhibitory Concentration.

≈ marks a conversion by molar mass, not a printed value. Like-named read-outs stand apart in the source and are kept apart here.

`CCN1CCN(C(=O)N[C@@H](C(=O)N[C@@H]2C(=O)N3C(C(=O)O)=C(CSc4nnnn4C)CS[C@H]23)c2ccc(O)cc2)C(=O)C1=O` [Compound VII, Cefaperazone]: the MIC under setting [1] came to 0.5 µg/mL (≈ 0.774 µM); the MIC under setting [2] was found to be 2 µg/mL (≈ 3.1 µM); the MIC under setting [3] stood at 0.5 µg/mL (≈ 0.774 µM); the MIC under setting [4] was found to be 0.5 µg/mL (≈ 0.774 µM); the MIC under setting [5] amounted to 0.5 µg/mL (≈ 0.774 µM); the MIC under setting [6] came out at 0.25 µg/mL (≈ 0.387 µM). The MIC is, setting by setting: under setting [7], 2 µg/mL (≈ 3.1 µM); under setting [8], 2 µg/mL (≈ 3.1 µM); under setting [9], 1 µg/mL (≈ 1.55 µM); under setting [10], 128 µg/mL (≈ 198 µM); under setting [11], 1 µg/mL (≈ 1.55 µM); under setting [12], 2 µg/mL (≈ 3.1 µM). In addition, the MIC came out at 2 µg/mL (≈ 3.1 µM) under setting [13]; 1 µg/mL (≈ 1.55 µM) under setting [14]; 2 µg/mL (≈ 3.1 µM) under setting [15]; 2 µg/mL (≈ 3.1 µM) under setting [16]; 1 µg/mL (≈ 1.55 µM) under setting [17]; 2 µg/mL (≈ 3.1 µM) under setting [18].

With `CO/N=C(\C(=O)N[C@@H]1C(=O)N2C(C(=O)O)=C(CSc3nnnn3C)CS[C@H]12)c1csc(N)n1` [Compound III, Cefmenoxime], the MIC is 1 µg/mL (≈ 1.95 µM) under setting [1]; 4 µg/mL (≈ 7.82 µM) under setting [2]; 1 µg/mL (≈ 1.95 µM) under setting [3]; 2 µg/mL (≈ 3.91 µM) under setting [4]; 1 µg/mL (≈ 1.95 µM) under setting [5]; 1 µg/mL (≈ 1.95 µM) under setting [6]. Further, the MIC worked out at 4 µg/mL (≈ 7.82 µM) under setting [7]; 4 µg/mL (≈ 7.82 µM) under setting [8]; 2 µg/mL (≈ 3.91 µM) under setting [9]; 32 µg/mL (≈ 62.6 µM) under setting [10]; 2 µg/mL (≈ 3.91 µM) under setting [11]; 2 µg/mL (≈ 3.91 µM) under setting [12]. Also, the MIC runs as follows: under setting [13], 2 µg/mL (≈ 3.91 µM); under setting [14], 2 µg/mL (≈ 3.91 µM); under setting [15], 4 µg/mL (≈ 7.82 µM); under setting [16], 4 µg/mL (≈ 7.82 µM); under setting [17], 2 µg/mL (≈ 3.91 µM); under setting [18], 2 µg/mL (≈ 3.91 µM).

Regarding `CO[C@@]1(NC(=O)C(C(=O)O)c2ccc(O)cc2)C(=O)N2C(C(=O)O)=C(CSc3nnnn3C)CO[C@@H]21` (stereo partly drawn) [Compound V, Moxalactam], the MIC stood at 2 µg/mL (≈ 3.84 µM) under setting [1]; 8 µg/mL (≈ 15.4 µM) under setting [2]; 2 µg/mL (≈ 3.84 µM) under setting [3]; 2 µg/mL (≈ 3.84 µM) under setting [4]; 2 µg/mL (≈ 3.84 µM) under setting [5]; 2 µg/mL (≈ 3.84 µM) under setting [6]. Besides, the MIC reads like this: under setting [7], 4 µg/mL (≈ 7.69 µM); under setting [8], 8 µg/mL (≈ 15.4 µM); under setting [9], 4 µg/mL (≈ 7.69 µM); under setting [10], 32 µg/mL (≈ 61.5 µM); under setting [11], 4 µg/mL (≈ 7.69 µM); under setting [12], 4 µg/mL (≈ 7.69 µM). Besides, the MIC reads like this: under setting [13], 4 µg/mL (≈ 7.69 µM); under setting [14], 2 µg/mL (≈ 3.84 µM); under setting [15], 4 µg/mL (≈ 7.69 µM); under setting [16], 4 µg/mL (≈ 7.69 µM); under setting [17], 2 µg/mL (≈ 3.84 µM); under setting [18], 4 µg/mL (≈ 7.69 µM).

As to `CO[C@@]1(NC(=O)Cc2cccs2)C(=O)N2C(C(=O)O)=C(COC(N)=O)CS[C@@H]21` [Compound VI, Cefoxitin], the MIC is, setting by setting: under setting [1], 2 µg/mL (≈ 4.68 µM); under setting [2], 2 µg/mL (≈ 4.68 µM); under setting [3], 1 µg/mL (≈ 2.34 µM); under setting [4], 1 µg/mL (≈ 2.34 µM); under setting [5], 1 µg/mL (≈ 2.34 µM); under setting [6], 1 µg/mL (≈ 2.34 µM). Moreover, the MIC was 2 µg/mL (≈ 4.68 µM) under setting [7]; 4 µg/mL (≈ 9.36 µM) under setting [8]; 2 µg/mL (≈ 4.68 µM) under setting [9]; 16 µg/mL (≈ 37.4 µM) under setting [10]; 2 µg/mL (≈ 4.68 µM) under setting [11]; 2 µg/mL (≈ 4.68 µM) under setting [12]. The MIC runs as follows: under setting [13], 2 µg/mL (≈ 4.68 µM); under setting [14], 2 µg/mL (≈ 4.68 µM); under setting [15], 4 µg/mL (≈ 9.36 µM); under setting [16], 4 µg/mL (≈ 9.36 µM); under setting [17], 2 µg/mL (≈ 4.68 µM); under setting [18], 2 µg/mL (≈ 4.68 µM).

With `CO/N=C(\C(=O)N[C@@H]1C(=O)N2C(C(=O)O)=CCS[C@H]12)c1csc(N)n1` [Compound IV, Ceftizoxime], the MIC runs as follows: under setting [1], 1 µg/mL (≈ 2.61 µM); under setting [2], 1 µg/mL (≈ 2.61 µM); under setting [3], 0.5 µg/mL (≈ 1.3 µM); under setting [4], 1 µg/mL (≈ 2.61 µM); under setting [5], 1 µg/mL (≈ 2.61 µM); under setting [6], 0.5 µg/mL (≈ 1.3 µM). Besides, the MIC is, setting by setting: under setting [7], 4 µg/mL (≈ 10.4 µM); under setting [8], 1 µg/mL (≈ 2.61 µM); under setting [9], 1 µg/mL (≈ 2.61 µM); under setting [10], more than 128 µg/mL; under setting [11], 0.5 µg/mL (≈ 1.3 µM); under setting [12], 0.5 µg/mL (≈ 1.3 µM). The MIC runs as follows: under setting [13], 1 µg/mL (≈ 2.61 µM); under setting [14], 0.5 µg/mL (≈ 1.3 µM); under setting [15], 4 µg/mL (≈ 10.4 µM); under setting [16], 1 µg/mL (≈ 2.61 µM); under setting [17], 0.5 µg/mL (≈ 1.3 µM); under setting [18], 1 µg/mL (≈ 2.61 µM).

On to `CO/N=C(\C(=O)N[C@@H]1C(=O)N2C(C(=O)O)=C(COC(C)=O)CS[C@H]12)c1csc(N)n1` [Compound II], for which the MIC (read-out: Minimal Inhibitory Concentration, beta-lactamase negative, strain SSC 79-3, Table II) was determined as 0.5 µg/mL (≈ 1.1 µM); the MIC (read-out: Minimal Inhibitory Concentration, beta-lactamase negative, strain SSC 79-5, Table II) turned out to be 1 µg/mL (≈ 2.2 µM); the MIC (read-out: Minimal Inhibitory Concentration, beta-lactamase negative, strain SSC 79-7, Table II) worked out at 0.5 µg/mL (≈ 1.1 µM); the MIC (read-out: Minimal Inhibitory Concentration, beta-lactamase negative, strain SSC 79-9, Table II) was 0.5 µg/mL (≈ 1.1 µM); the MIC (read-out: Minimal Inhibitory Concentration, beta-lactamase negative, strain SSC 79-10, Table II) came out at 0.5 µg/mL (≈ 1.1 µM); the MIC (read-out: Minimal Inhibitory Concentration, beta-lactamase negative, strain SSC 79-11, Table II) stood at 0.5 µg/mL (≈ 1.1 µM). Further, the MIC worked out at 2 µg/mL (≈ 4.39 µM) (read-out: Minimal Inhibitory Concentration, beta-lactamase negative, strain SSC 79-14, Table II); 2 µg/mL (≈ 4.39 µM) (read-out: Minimal Inhibitory Concentration, beta-lactamase negative, strain SSC 79-15, Table II); 1 µg/mL (≈ 2.2 µM) (read-out: Minimal Inhibitory Concentration, beta-lactamase negative, strain SSC 79-17, Table II); 16 µg/mL (≈ 35.1 µM) (read-out: Minimal Inhibitory Concentration, beta-lactamase positive, strain SSC 79-24, Table II); 1 µg/mL (≈ 2.2 µM) (read-out: Minimal Inhibitory Concentration, beta-lactamase positive, strain SSC 79-27, Table II); 1 µg/mL (≈ 2.2 µM) (read-out: Minimal Inhibitory Concentration, beta-lactamase positive, strain SSC 79-28, Table II). For the same compound, the MIC amounted to 1 µg/mL (≈ 2.2 µM) (read-out: Minimal Inhibitory Concentration, beta-lactamase positive, strain SSC 79-36, Table II); 1 µg/mL (≈ 2.2 µM) (read-out: Minimal Inhibitory Concentration, beta-lactamase positive, strain SSC 79-38, Table II); 1 µg/mL (≈ 2.2 µM) (read-out: Minimal Inhibitory Concentration, beta-lactamase positive, strain SSC 79-39, Table II); 2 µg/mL (≈ 4.39 µM) (read-out: Minimal Inhibitory Concentration, beta-lactamase positive, strain SSC 79-41, Table II); 1 µg/mL (≈ 2.2 µM) (read-out: Minimal Inhibitory Concentration, beta-lactamase positive, strain SSC 79-44, Table II); 1 µg/mL (≈ 2.2 µM) (read-out: Minimal Inhibitory Concentration, beta-lactamase positive, strain SSC 79-47, Table II).
